Data as given in PMC8185074, “Anchor extension: a structure-guided approach to design cyclic peptides targeting enzyme active sites” (Nature Communications, 2021).
Like-named read-outs stand apart in the source and are kept apart here. Peptide text beside a SMILES is read from it.

Columns and labels:
[1] = tested on: HDAC6; conditions: cited from earlier work
[2] = biological target: T1, HDAC1 (Homo sapiens, UniProt Q13547); conditions: Supp. Table 1; cited from earlier work
T1 construct: purchased Reaction Biology Corporation (assay run by the CRO)
T1 sequence (Q13547 whole entry): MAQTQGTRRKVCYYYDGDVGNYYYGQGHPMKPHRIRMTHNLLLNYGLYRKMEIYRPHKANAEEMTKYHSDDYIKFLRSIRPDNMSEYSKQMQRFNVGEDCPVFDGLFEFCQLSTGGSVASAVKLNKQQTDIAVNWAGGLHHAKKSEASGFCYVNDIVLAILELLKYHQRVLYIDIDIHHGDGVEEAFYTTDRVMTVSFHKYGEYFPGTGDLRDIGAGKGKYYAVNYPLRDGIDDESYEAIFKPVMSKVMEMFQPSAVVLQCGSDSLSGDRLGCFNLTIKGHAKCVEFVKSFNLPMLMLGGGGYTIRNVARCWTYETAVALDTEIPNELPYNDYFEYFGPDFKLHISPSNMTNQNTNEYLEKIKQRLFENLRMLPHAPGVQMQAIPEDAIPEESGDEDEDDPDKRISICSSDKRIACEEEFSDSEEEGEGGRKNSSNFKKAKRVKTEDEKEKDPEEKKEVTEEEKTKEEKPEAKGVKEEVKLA

[3] = biological target: T2, HDAC3 (Homo sapiens, UniProt O15379); assay: HDAC3 inhibition, full IC50 measurement (Reaction Biology; fluorogenic p53 peptide RHKK(Ac)AMC); type: biochemical; conditions: for HDAC3 activity raw data (signal): single trial
T2 construct: purchased Reaction Biology Corporation (assay run by the CRO)
T2 sequence (O15379 whole entry): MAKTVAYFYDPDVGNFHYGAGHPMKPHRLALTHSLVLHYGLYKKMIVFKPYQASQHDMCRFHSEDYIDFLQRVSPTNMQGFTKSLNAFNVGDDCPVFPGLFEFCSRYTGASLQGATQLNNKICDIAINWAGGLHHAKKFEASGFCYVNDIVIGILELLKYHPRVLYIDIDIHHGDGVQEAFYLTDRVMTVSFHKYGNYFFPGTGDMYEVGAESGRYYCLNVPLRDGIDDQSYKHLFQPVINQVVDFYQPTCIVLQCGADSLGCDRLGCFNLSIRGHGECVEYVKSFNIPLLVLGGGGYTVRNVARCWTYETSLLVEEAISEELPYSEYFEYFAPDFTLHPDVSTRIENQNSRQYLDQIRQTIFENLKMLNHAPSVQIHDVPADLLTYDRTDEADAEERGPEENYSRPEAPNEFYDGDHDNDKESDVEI
T2 sequence (Q9Y618 395-489 partner limits assumed): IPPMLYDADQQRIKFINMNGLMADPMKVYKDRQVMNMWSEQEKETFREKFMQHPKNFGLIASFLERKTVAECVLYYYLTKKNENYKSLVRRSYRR
Description: (§1) The assay was performed using 50 μM fluorogenic peptide from p53 residues 379-382 [RHKK(Ac)AMC] in a base reaction buffer of 50 mM Tris-HCl at pH 8.0, 137 mM NaCl, 2.7 mM KCl, 1 mM MgCl2, and freshly added 1 mg/ml BSA and 1% DMSO. Peptides were first dissolved in DMSO and then added to the reaction mixture with the enzyme using acoustic technique, enough to reach the desired concentration for that assay point. Peptide concentrations were calculated based on mass of lyophilized peptide and its molecular weight. The substrate was then added and incubated for 1 hour at 30 °C in a sealed container. After the incubation, developer was added to stop the reaction and develop color. Kinetic measurements were then performed for 20 min with Envision with 5 min intervals (Ex/Em = 360/460 nm). The endpoint after plateau was taken for IC50 measurement.
(§2) In cases where duplicate measures are used, average data is reported in the main text or Supplementary Tables.

[4] = biological target: T3, HDAC6 (Homo sapiens, UniProt Q9UBN7); assay: HDAC6 inhibition, full IC50 measurement (Reaction Biology; fluorogenic p53 peptide RHKK(Ac)AMC); type: biochemical; conditions: for HDAC6 activity raw data (signal): single trial
T3 construct: purchased Reaction Biology Corporation (assay run by the CRO)
T3 sequence (Q9UBN7 1-1215): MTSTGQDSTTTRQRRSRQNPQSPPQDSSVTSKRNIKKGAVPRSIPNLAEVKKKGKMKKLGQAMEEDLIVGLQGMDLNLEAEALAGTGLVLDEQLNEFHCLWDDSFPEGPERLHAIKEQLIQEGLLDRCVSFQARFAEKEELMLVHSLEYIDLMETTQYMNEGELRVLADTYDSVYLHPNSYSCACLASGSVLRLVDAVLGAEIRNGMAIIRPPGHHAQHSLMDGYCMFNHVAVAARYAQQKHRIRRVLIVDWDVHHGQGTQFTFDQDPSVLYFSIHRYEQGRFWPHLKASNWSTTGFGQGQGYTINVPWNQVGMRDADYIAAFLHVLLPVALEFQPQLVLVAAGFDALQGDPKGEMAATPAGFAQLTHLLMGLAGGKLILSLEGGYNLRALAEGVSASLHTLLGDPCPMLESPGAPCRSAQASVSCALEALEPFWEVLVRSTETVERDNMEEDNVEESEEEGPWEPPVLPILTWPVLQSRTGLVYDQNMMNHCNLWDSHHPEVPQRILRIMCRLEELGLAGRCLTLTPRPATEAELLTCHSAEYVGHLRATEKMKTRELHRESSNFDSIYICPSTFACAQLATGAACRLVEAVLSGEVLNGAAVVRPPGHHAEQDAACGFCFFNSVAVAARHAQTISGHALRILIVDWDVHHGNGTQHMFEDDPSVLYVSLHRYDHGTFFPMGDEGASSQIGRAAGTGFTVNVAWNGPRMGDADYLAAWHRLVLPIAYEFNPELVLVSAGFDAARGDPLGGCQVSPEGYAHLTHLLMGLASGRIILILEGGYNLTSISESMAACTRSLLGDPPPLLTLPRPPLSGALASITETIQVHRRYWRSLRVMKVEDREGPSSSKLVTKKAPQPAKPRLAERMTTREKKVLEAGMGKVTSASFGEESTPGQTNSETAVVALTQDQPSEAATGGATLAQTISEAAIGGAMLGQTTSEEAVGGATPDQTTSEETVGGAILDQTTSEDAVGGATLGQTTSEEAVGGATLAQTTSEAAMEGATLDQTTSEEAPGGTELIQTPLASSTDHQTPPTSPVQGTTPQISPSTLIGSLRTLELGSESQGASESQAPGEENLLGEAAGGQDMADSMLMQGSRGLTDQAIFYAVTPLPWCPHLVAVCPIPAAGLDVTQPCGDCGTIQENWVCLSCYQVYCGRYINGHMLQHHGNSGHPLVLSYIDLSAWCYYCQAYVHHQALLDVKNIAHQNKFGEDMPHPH
Description: as §1, §2

[5] = biological target: T1, HDAC1; assay: HDAC1 inhibition, full IC50 measurement (Reaction Biology; fluorogenic p53 peptide RHKK(Ac)AMC); type: biochemical; conditions: Supp. Table 1
Description: as §1, §2

[6] = biological target: T4, HDAC2 (Homo sapiens, UniProt Q92769); assay: Initial HDAC2 IC50 estimate (BPS Biosciences HDAC fluorogenic assay kit); type: biochemical; conditions: Supplementary Dataset 2; read-out: HDAC2 activity (initial activity)
T4 construct: purchased Reaction Biology Corporation (assay run by the CRO)
T4 sequence (Q92769 whole entry): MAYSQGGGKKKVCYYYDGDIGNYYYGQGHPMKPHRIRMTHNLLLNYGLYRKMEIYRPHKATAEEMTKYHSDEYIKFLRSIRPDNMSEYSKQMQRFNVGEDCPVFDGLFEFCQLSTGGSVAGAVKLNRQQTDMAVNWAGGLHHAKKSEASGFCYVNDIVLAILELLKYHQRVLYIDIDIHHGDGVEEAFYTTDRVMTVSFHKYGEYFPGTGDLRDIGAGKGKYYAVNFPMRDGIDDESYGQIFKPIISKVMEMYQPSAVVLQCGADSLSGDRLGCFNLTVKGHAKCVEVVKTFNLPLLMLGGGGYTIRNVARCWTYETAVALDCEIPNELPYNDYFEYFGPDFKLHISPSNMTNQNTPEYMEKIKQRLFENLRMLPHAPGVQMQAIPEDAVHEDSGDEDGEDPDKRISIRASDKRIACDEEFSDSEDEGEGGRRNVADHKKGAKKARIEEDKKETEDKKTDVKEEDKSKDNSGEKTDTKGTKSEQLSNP
Description: Initial IC50 values were estimated using HDAC fluorogenic assay kits from BPS Biosciences (HDAC2, HDAC4, and HDAC6) following the protocol described in the kit. All the measures were performed in duplicates or triplicates. These measurements were done either on full range of concentrations (1:10 dilution from 1 µM to 100 pM) or on two concentrations only (20 nM and 200 nM) as an estimate of the range. […] Source Data are provided as a Source Data file.

[7] = biological target: T4, HDAC2; assay: HDAC2 inhibition, full IC50 measurement (Reaction Biology; fluorogenic p53 peptide RHKK(Ac)AMC); type: biochemical; conditions: for HDAC2 activity raw data (signal): single trial
Outline: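 Reaction: enzyme plus acoustically dispensed peptide inhibitor, 50 μM RHKK(Ac)AMC substrate, pH 8.0 Tris buffer with BSA and 1% DMSO, 1 h, 30 °C. Duplicates averaged.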

[8] = biological target: T5, HDAC8 (Homo sapiens, UniProt Q9BY41); assay: HDAC8 inhibition, full IC50 measurement (Reaction Biology; fluorogenic p53 peptide RHKK(Ac)AMC); type: biochemical; conditions: Supp. Table 1
T5 construct: purchased Reaction Biology Corporation (assay run by the CRO)
T5 sequence (Q9BY41 1-377): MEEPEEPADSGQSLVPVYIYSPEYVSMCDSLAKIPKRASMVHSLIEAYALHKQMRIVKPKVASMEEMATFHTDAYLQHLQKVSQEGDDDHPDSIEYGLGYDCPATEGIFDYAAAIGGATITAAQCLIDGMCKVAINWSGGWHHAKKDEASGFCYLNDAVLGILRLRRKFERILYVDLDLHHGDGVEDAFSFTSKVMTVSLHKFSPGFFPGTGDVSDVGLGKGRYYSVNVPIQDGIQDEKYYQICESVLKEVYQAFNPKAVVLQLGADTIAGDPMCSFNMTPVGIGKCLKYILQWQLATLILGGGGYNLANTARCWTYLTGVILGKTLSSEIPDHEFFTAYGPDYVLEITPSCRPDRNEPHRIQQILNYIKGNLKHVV
Description: as §1, §2

[9] = biological target: T6, HDAC4 (Homo sapiens, UniProt P56524); conditions: Supp. Table 1; cited from earlier work
T6 construct: purchased BPS Biosciences
T6 sequence (P56524 whole entry): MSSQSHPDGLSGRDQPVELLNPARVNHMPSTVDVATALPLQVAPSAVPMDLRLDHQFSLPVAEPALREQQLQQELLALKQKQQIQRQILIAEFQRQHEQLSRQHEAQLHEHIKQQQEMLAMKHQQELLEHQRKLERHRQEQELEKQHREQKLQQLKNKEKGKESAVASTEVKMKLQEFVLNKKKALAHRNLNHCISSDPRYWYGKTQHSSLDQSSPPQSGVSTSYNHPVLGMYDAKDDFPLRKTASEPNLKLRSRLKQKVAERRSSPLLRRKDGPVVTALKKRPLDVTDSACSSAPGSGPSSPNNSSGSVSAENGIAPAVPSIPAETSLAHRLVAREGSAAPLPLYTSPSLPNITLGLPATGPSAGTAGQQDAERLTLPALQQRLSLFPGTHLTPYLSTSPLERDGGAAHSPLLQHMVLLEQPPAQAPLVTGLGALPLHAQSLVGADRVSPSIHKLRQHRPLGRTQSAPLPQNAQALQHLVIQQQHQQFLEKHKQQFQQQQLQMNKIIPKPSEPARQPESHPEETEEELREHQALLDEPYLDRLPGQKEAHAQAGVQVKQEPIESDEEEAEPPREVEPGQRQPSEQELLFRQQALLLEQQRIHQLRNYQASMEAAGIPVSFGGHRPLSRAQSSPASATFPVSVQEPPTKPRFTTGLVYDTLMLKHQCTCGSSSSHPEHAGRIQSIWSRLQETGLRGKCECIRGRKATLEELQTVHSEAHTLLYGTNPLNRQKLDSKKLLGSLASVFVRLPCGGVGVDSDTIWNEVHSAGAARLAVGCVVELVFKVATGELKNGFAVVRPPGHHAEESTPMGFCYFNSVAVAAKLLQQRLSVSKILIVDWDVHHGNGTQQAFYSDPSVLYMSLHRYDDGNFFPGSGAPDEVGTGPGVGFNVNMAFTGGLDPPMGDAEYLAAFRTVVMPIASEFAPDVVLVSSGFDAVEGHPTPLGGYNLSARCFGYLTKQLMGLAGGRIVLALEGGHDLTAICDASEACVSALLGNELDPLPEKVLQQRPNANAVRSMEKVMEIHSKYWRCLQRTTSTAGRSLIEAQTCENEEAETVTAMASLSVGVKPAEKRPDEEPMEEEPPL

Compound	IC50 ([1]; Supp. Table 1) [nM]	IC50 [6] [nM]	HDAC3 activity raw data (signal) ([3]; Conc. 1.00E-04 M)	HDAC3 activity raw data (signal) ([3]; Conc. 1.11E-05 M)	HDAC3 activity raw data (signal) ([3]; Conc. 1.23E-06 M)	HDAC3 activity raw data (signal) ([3]; Conc. 1.37E-07 M)	HDAC3 activity raw data (signal) ([3]; Conc. 1.52E-08 M)	HDAC3 activity raw data (signal) ([3]; Conc. 3.33E-05 M)	HDAC3 activity raw data (signal) ([3]; Conc. 3.70E-06 M)	HDAC3 activity raw data (signal) ([3]; Conc. 4.12E-07 M)	HDAC3 activity raw data (signal) ([3]; Conc. 4.57E-08 M)	HDAC3 activity raw data (signal) ([3]; Conc. 5.08E-09 M)	HDAC6 activity raw data (signal) ([4]; Conc. 1.00E-04 M)	HDAC6 activity raw data (signal) ([4]; Conc. 1.11E-05 M)	HDAC6 activity raw data (signal) ([4]; Conc. 1.23E-06 M)	HDAC6 activity raw data (signal) ([4]; Conc. 1.37E-07 M)	HDAC6 activity raw data (signal) ([4]; Conc. 1.52E-08 M)	HDAC6 activity raw data (signal) ([4]; Conc. 3.33E-05 M)	HDAC6 activity raw data (signal) ([4]; Conc. 3.70E-06 M)	HDAC6 activity raw data (signal) ([4]; Conc. 4.12E-07 M)	further results
Cyl-2	40000	–	–	–	–	–	–	–	–	–	–	–	–	–	–	–	–	–	–	–	IC50 [2]: 0.7 ± 0.45 nM
N=C(N)NCCC[C@@H]1NC(=O)[C@@H](CCCNC(=N)N)NC(=O)[C@H]2CCCN2C(=O)[C@@H](Cc2c[nH]cn2)NC(=O)[C@H](Cc2ccc(O)cc2)NC(=O)[C@H](CCCCCS)NC(=O)[C@H](CCc2ccccc2)NC(=O)[C@@H](CCC(N)=O)NC(=O)[C@H](CC(=O)O)NC1=O [des3.3.0, SHA-Tyr-dHis-dPro-dArg- Arg-Asp-dGln-C27] (HELM PEPTIDE1{D.[dQ].[O=C([C@H](CCc1ccccc1)N[*:1])[*:2]].[O=C([C@H](CCCCCS)N[*:1])[*:2]].Y.[dH].[dP].[dR].R}$PEPTIDE1,PEPTIDE1,1:R1-9:R2$$$V2.0)	–	10 to 100	–	–	–	–	–	–	–	–	–	–	–	–	–	–	–	–	–	–	IC50 ([3]; Supp. Table 1): 6.4 nM; IC50 ([4]; figure legends, Supp. Tables 1 and 8, read-out: HDAC6 IC50): 11.6 nM; IC50 [5]: 4.2 nM; IC50 ([7]; figure legends, Supp. Table 1, read-out: HDAC2 IC50): 9.1 nM; IC50 [8]: 244 nM
N=C(N)NCCC[C@H]1NC(=O)[C@H]2CCCN2C(=O)[C@@H](Cc2c[nH]cn2)NC(=O)[C@H](Cc2ccc(O)cc2)NC(=O)[C@H](CCCCCS)NC(=O)[C@H](CCc2ccccc2)NC(=O)[C@H](CCCCN)NC1=O [des3.2.5, SHA-Tyr-dHis-dPro-dArg-Lys-C27] (HELM PEPTIDE1{K.[O=C([C@H](CCc1ccccc1)N[*:1])[*:2]].[O=C([C@H](CCCCCS)N[*:1])[*:2]].Y.[dH].[dP].[dR]}$PEPTIDE1,PEPTIDE1,1:R1-7:R2$$$V2.0)	–	95	-14418	6191	36941	210610	383928	-3999	13003	93966	285917	409923	-6596	-4177	2489	40408	187931	-7167	1736	17454	HDAC6 activity raw data (signal) ([4]; Conc. 4.57E-08 M): 101146; HDAC6 activity raw data (signal) ([4]; Conc. 5.08E-09 M): 300973; 2-Selectivity: fold potency for HDAC2 over HDAC6 [7]: 0.40 fold; HDAC2 activity raw data (signal) ([7]; Conc. 1.00E-04 M): -10024; HDAC2 activity raw data (signal) ([7]; Conc. 1.11E-05 M): -3664; HDAC2 activity raw data (signal) ([7]; Conc. 1.23E-06 M): 23341; HDAC2 activity raw data (signal) ([7]; Conc. 1.37E-07 M): 186535; HDAC2 activity raw data (signal) ([7]; Conc. 1.52E-08 M): 378556; HDAC2 activity raw data (signal) ([7]; Conc. 3.33E-05 M): -4061; HDAC2 activity raw data (signal) ([7]; Conc. 3.70E-06 M): 7985; HDAC2 activity raw data (signal) ([7]; Conc. 4.12E-07 M): 87059; HDAC2 activity raw data (signal) ([7]; Conc. 4.57E-08 M): 320609; HDAC2 activity raw data (signal) ([7]; Conc. 5.08E-09 M): 410566
C/C=C1\NC(=O)[C@H]2CSSCC/C=C/[C@H](CC(=O)N[C@H](C(C)C)C(=O)N2)OC(=O)[C@H](C(C)C)NC1=O [Romidepsin]	–	–	–	–	–	–	–	–	–	–	–	–	–	–	–	–	–	–	–	–	IC50 [1]: […]; IC50 [9]: 25 ± 7.3 nM
NCCCC[C@@H]1NC(=O)[C@@H](CC(N)=O)NC(=O)[C@H]2CCCN2C(=O)[C@@H](Cc2c[nH]cn2)NC(=O)[C@H](Cc2ccc(O)cc2)NC(=O)[C@H](CCCCCS)NC(=O)[C@H](CCc2ccccc2)NC1=O [des3.2.4, SHA-Tyr-dHis-dPro-dAsn-Lys-C27] (HELM PEPTIDE1{K.[O=C([C@H](CCc1ccccc1)N[*:1])[*:2]].[O=C([C@H](CCCCCS)N[*:1])[*:2]].Y.[dH].[dP].[dN]}$PEPTIDE1,PEPTIDE1,1:R1-7:R2$$$V2.0)	–	54	-9402	593	35444	204357	337866	-3894	11659	78893	259781	427232	-2801	-1849	4374	43765	190706	-563	-1989	12736	HDAC6 activity raw data (signal) ([4]; Conc. 4.57E-08 M): 97833; HDAC6 activity raw data (signal) ([4]; Conc. 5.08E-09 M): 278125; 2-Selectivity: fold potency for HDAC2 over HDAC6 [7]: 0.43 fold; HDAC2 activity raw data (signal) ([7]; Conc. 1.00E-04 M): -2073; HDAC2 activity raw data (signal) ([7]; Conc. 1.11E-05 M): 877; HDAC2 activity raw data (signal) ([7]; Conc. 1.23E-06 M): 16887; HDAC2 activity raw data (signal) ([7]; Conc. 1.37E-07 M): 156676; HDAC2 activity raw data (signal) ([7]; Conc. 1.52E-08 M): 359436; HDAC2 activity raw data (signal) ([7]; Conc. 3.33E-05 M): -5431; HDAC2 activity raw data (signal) ([7]; Conc. 3.70E-06 M): -8111; HDAC2 activity raw data (signal) ([7]; Conc. 4.12E-07 M): 83192; HDAC2 activity raw data (signal) ([7]; Conc. 4.57E-08 M): 254992; HDAC2 activity raw data (signal) ([7]; Conc. 5.08E-09 M): 399941
Trapoxin B	360 ± 160	–	–	–	–	–	–	–	–	–	–	–	–	–	–	–	–	–	–	–	IC50 [9]: 0.3 ± 0.03 nM
